The source of these data is patent US4510149A, “N-Imidazolyl derivatives containing naphthalene or indene nucleus” (Farmitalia Carlo Erba S.p.A., priority 1982, dated 1985).

“Also recorded” adds a separate entry of the source.

Data set [1] relates to male rats fed hypercholesterolaemic diet. The data set is described as follows: Experiment No. 1: serum lipids in rats fed hypercholesterolaemic diet. As to conditions: 4 days. Format: in vivo, rat (Icem: CER (SPF Caw)). The procedure:
(§1) The introduction of this new substituent in the new bicyclic compounds has therefore unexpectedly strenghtened these activities. The activity of this particular group of compounds of this invention and of the compounds of the above mentioned U.S. Patent and U.K. published Patent Application was evaluated on groups of Icem: CER (SPF Caw) male rats either fed for six days with hypercholesterolaemic diet according to C. E. Day [Schurr P. E., Schultz H. R., Day C. E. (Eds) Atherosclerosis and drug discovery--Plenum Pub. Corp., 217 (1976)] (Experiment No. 1) or fed standard diet [Altromin] (Experiment No. 2). "Altromin" is a trade mark.
(§2) The compounds were suspended in "Methocel" (methyl cellulose, a 0.5% suspension in water) and administered by stomach tube for 4 days.
(§3) Groups of animals were treated with the suspending agent only (control groups).
(§4) The total serum cholesterol was determined with the method of Trinder P. J. [J.Clin.Pathol., 22, 246 (1969)].
The total serum HDL cholesterol was determined according to Demacker P. N. M. [Clin. Chem., 23, 1238, (1977)].
Statistical analysis in experiment No. 1 was performed by the Student's t test for independent samples or by the Cochran's test when the variances were not homogeneous at the F ratio test [Bliss C. I.--Statistics in Biology, Vol. 1, page 213--Mc Graw Hill Book Company, New York, 1967; Cochran W. G., Cox G. M.--Experimental designs--J. Wiley & Sons Inc., New York, II Ed. (1968) page 100].

Data set [2] has as its system collagen-induced platelet aggregation. The data set can be described thus: in vitro inhibition of collagen-induced platelet aggregation in platelet rich plasma. As to conditions: for inhibition at 12.5 µg/mL: in vitro concentration 12.50 mcg/ml. Format: cell-based, guinea pig. As to the method: (§5) The platelet antiaggregatory activity of the compounds of the invention was evaluated in vitro and in vivo, for example, according to the modified methods of Born [Born G. V. R., Nature 194, 927 (1962)] and Silver [Silver M. J., Science 183, 1085 (1974)].
(§6) The compounds of this invention were found in vitro to have inhibitory activity on platelet aggregation induced by collagen or ADP (adenosine-5'-disphosphate) in platelet rich plasma of guinea pig [Dunkin Hantley Iva: PDH (SPF) Ivanovas GmBH, Germany].

The nature of data set [3]: orientative acute toxicity, single oral administration, mice. To be noted: in vivo, mouse, same procedure. As to the method: The toxicity of the compounds of the invention is negligible, therefore they can be safely used in therapy. Nine hours food deprived mice and rats were treated orally with single administration of increasing doses, then housed and normally fed. The orientative acute toxicity (LD50) was assessed on the seventh day after the treatment and resulted higher than 3000 mg/kg.

The subject of data set [4] is ADP-induced platelet aggregation. The data set can be described thus: in vitro inhibition of ADP-induced platelet aggregation in platelet rich plasma. Format: cell-based. To be noted: guinea pig platelet rich plasma. As to the method:
as §5, §6

The subject of data set [5] is male rats fed standard diet. The data set can be described thus: Experiment No. 2: serum lipids in rats fed standard Altromin diet. Format: in vivo, rat (Icem: CER (SPF Caw)). To be noted: 4 days. As to the method: as §1, §2, §3, §4
The serum triglycerides were determined with the method of Mendex J. [J. Clin. Chem., 21, 768, (1975)].
W.--J. Amer. Stat. Ass., 50, 1096 (1955)].

Data set [6] relates to thromboxane A2 (TXA2) synthetase. To be noted: literature / prior filings; cited from earlier work.
The subject of the next data set is TxA2 synthetase. The data set is described as follows: serum TxB2 concentration in rats after single oral dose (activity on TxA2 synthetase in vivo). Details: species or system rat. As to conditions: 2 hours. As to the method:
(§7) The activity on TxA2 and PGI2 synthetase has been evaluated in vivo. For example, rats were treated with a single oral dose of compound and killed 2 hours later. TxB2 and 6-keto-PGF1α concentrations, the stable metabolites of TxA2 and PGI2 respectively, were determined on serum and plasma respectively.

The subject of data set [7] is arachidonic acid (1.4 mg/kg) induced mortality in rabbits. The data set is described as follows: arachidonic acid induced mortality in rabbits. It counts as in vivo, rabbit (New Zealand White). The procedure:
as §5
The compound FCE 22178 was also suspended in Methocel® and administered orally by gavage to rabbits (New Zealand White) at 2 mg/kg one hour before the injection of 1.4 mg/kg of arachidonic acid.

A further data set has as its system PGI2 synthetase. The data set can be described thus: plasma 6-keto-PGF1α concentration in rats after single oral dose (activity on PGI2 synthetase in vivo). To be noted: 2 hours. Details: species or system rat. The procedure:
as §7

Another data set deals with male SHR rats. The data set can be described thus: development of hypertension in SHR rats, mean systemic pressure after seven weeks oral treatment. Format: in vivo, rat (SHR). As to the method:
For example, one of the compound of this invention, i.e. compound FCE 22178, was given orally to nine male SHR rats for seven weeks at the dosage of 9 mg/kg.
The mean systemic pressure was monitored on an eight channels Beckman polygraph via a Statham pressure transducer, connected to a PE 60 catheter, inserted, 24 hours before monitored, into the left carotid artery.

Regarding `O=C1c2cc(Cl)ccc2OCC1n1ccnc1` (stereo not shown) [FCE 20204, 3-(1-imidazolyl)-2,3-dihydro-6-chloro-4H-1-benzopyran-4-one, reference compound], in data set [1] (25 mg/kg/os), the “Serum HDL cholesterol, % variation vs. controls” value is “+49 % variation vs. controls” and the “Total serum cholesterol, % variation vs. controls” value is on record as “+7 % variation vs. controls”. Moreover, at 12.5 µg/mL the inhibition in data set [2] (Cavia porcellus, Platelet) was 0%.
In the case of `C1=C(Cn2ccnc2)CCc2ccccc21` [1,2-dihydro-3-(1-imidazolylmethyl)-naphthalene], the LD50 at 168 h in data set [3] is under 200 mg/kg.
For the molecule `COc1ccc2c(c1)C=C(n1ccnc1)CC2` [FCE 22466, 1,2-dihydro-3-(1-imidazolyl)-6-methoxy-naphthalene], the “activity on ADP-induced platelet aggregation” value in data set [4] is on record as “active”. Besides, the “inhibition of collagen-induced platelet aggregation” value in data set [2] (25 mcg/ml) was “totally inhibits collagen-induced platelet aggregation in three out of four samples”. In addition, in [2] (Cavia porcellus, Platelet, in vitro concentration 12.33 mcg/ml), the inhibition at 12.33 µg/mL amounted to 50%. Also, the “activity on collagen-induced platelet aggregation” value in data set [2] (in vitro, guinea pig platelet rich plasma) is recorded as “active”.
As for `COc1ccc2c(c1)C(=O)C(n1ccnc1)CC2` (stereo not shown) [FCE 21848, 2-(1-imidazolyl)-3,4-dihydro-7-methoxy-1(2H)-naphthalenone, reference compound], in data set [5] (50.00 mg/kg/os), the “Serum triglycerides, % variation vs. controls” value is “inactive” and the “Total serum cholesterol, % variation vs. controls” value is “inactive”. Moreover, the inhibition at 12.5 µg/mL in data set [2] (Cavia porcellus, Platelet) worked out at 0%.
In the case of `c1c[nH]cn1` [imidazole], in data set [6], the “inhibition of TxA2 synthetase” value is listed as “able to inhibit; also recorded: only a very weak TXA2 inhibiting effect”.
In data set [3], `COc1ccc2c(c1)CCC(Cn1ccnc1)=C2` [1,2-dihydro-3-(1-imidazolylmethyl)-7-methoxy-naphthalene] had an LD50 at 168 h of under 200 mg/kg.
`CC(C)(Oc1ccc2c(c1)C=C(n1ccnc1)CC2)C(=O)O` [FCE 22473, 1,2-dihydro-3-(1-imidazolyl)-6-(2-carboxy-isopropoxy)-naphthalene]: in [5] (16.67 mg/kg/os), the “Serum triglycerides, % variation vs. controls” value was -57 % variation vs. controls and the “Total serum cholesterol, % variation vs. controls” value is listed as -32 % variation vs. controls. In data set [1] (27 mg/kg/os), the “Serum HDL cholesterol, % variation vs. controls” value was “+77 % variation vs. controls” and the “Total serum cholesterol, % variation vs. controls” value is recorded as -73 % variation vs. controls.
As to `O=C(O)c1ccc2c(c1)C=C(n1ccnc1)CC2` [FCE 22178, 1,2-dihydro-3-(1-imidazolyl)-6-carboxy-naphthalene], the “reduction of serum TxB2 concentration” value is 90% in the data set with TxA2 synthetase (100 mg/kg) and “up to 70%” with TxA2 synthetase (dosed up to 9 mg/kg). The “effect on arachidonic acid induced mortality” value in [7] (2 mg/kg orally) was “greatly decreases”. Moreover, in data set [7] (2 mg/kg/os, one hour before arachidonic acid 1.4 mg/kg, Methocel control 9/9), the Mortality is recorded as 3/9. Further, in the data set on PGI2 synthetase (100 mg/kg), the “change of plasma 6-keto-PGF1α concentration” value was “doubled”. For the same molecule, the “increase of plasma 6-keto-PGF1α concentration” value in the data set on PGI2 synthetase (dosed up to 9 mg/kg) was “up to 30%”. Further, the development of hypertension entry in the data set with male SHR rats (9 mg/kg orally for seven weeks) is recorded as “decreased the development of hypertension”. Also, the “Mean systemic pressure, Treated” value in the data set with male SHR rats (9 mg/kg orally, 7 weeks, controls 177 ± 5.06) was 154.8 ± 14.1 mm Hg ± E.S.

The term inhibition denotes the relative decrease from the control value, in per cent. A high value points to strong suppression. By LD50 is commonly meant the dose at which mortality reaches 50%. A higher LD50 goes with lower toxicity.
